Reference: US20030215462A1, “Use of UGT inhibitors to increase bioavailability” (priority 2001, published 2003)
Where “and” joins values, the source holds several entries; their conditions need not be identical. Identical values can stand only once.

Key:
[1] = molecular target: T1, UGT1A1 (Homo sapiens, UniProt P22309); assay: Inhibition of raloxifene glucuronidation by recombinant UGT1A1 Supersomes; conditions: for activity at 15 min / activity at 15 min, 10 µM / activity at 15 min, 25 µM / activity at 15 min, 50 µM: human; for activity at 15 min, 10 µM: inhibitor 10 μM; for % of control metabolism, raloxifene G1 / % of control metabolism, raloxifene G2: UGT1A1
T1 sequence (P22309 26-533): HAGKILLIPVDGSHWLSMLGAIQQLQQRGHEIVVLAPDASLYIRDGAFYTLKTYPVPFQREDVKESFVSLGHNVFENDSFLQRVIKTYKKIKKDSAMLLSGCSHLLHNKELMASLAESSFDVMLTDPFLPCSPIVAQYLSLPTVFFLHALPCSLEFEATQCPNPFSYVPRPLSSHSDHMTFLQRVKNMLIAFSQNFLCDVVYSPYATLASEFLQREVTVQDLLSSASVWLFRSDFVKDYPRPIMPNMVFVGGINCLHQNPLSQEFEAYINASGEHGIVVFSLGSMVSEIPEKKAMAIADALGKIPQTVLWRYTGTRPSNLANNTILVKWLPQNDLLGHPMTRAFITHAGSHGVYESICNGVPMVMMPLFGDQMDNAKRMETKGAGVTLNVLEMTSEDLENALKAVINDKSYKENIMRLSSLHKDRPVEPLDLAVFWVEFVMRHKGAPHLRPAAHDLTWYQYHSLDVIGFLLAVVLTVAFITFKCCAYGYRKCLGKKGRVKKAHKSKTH
Protocol: (§2) Compounds were eluted using a binary solvent gradient system. Solvent A was water brought to pH 8 with NH4OH. Solvent B was methanol. Solvent flow rate was 1 ml/min and the column temperature was maintained at 50° C. Detection was at 280 nm. […] The system was then returned to the initial conditions and equilibrated for 3 min.

[2] = molecular target: T2, UGT1A10 (Homo sapiens, UniProt Q9HAW8); assay: Inhibition of raloxifene glucuronidation by recombinant UGT1A10 Bacculosomes; conditions: for activity at 15 min, 50 µM: Bacculosomes with recombinant human UGT1A10, pH 7.5, probe raloxifene 50 μM
T2 sequence (Q9HAW8 26-530): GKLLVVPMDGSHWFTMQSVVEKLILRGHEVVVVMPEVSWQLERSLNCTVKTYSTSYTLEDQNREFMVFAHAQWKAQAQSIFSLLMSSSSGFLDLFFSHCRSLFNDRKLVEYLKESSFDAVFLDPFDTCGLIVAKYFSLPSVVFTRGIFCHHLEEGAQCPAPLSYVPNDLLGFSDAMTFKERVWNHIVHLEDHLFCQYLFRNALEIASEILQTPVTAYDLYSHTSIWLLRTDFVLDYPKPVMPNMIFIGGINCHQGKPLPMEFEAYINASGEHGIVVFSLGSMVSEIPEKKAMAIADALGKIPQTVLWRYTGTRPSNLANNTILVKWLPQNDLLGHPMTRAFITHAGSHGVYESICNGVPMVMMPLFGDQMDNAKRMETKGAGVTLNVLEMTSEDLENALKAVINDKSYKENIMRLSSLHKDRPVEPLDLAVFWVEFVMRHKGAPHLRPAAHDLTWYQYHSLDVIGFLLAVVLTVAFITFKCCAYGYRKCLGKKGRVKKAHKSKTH
Protocol: as §2

[3] = test system: T3, UGT enzymes of human liver microsomes; assay: Kinetic and Ki studies of inhibitors of 7-HFC glucuronidation in human liver microsomes; assay type: biochemical; conditions: 7-HFC 20-500 μM; for Km: read-out: Km of 7-HFC glucuronidation (fit of the experiment with this inhibitor)
T3 construct: percentage of control metabolism, 7-HFC glucuronidation; percentage of control metabolism, 7-HFC glucuronidation

[4] = test system: T4, UGT enzymes of human liver microsomes; assay: Inhibition of labetalol glucuronidation (LG1, LG2) in human liver microsomes; assay type: biochemical; conditions: labetalol 50 μM
T4 construct: residual metabolism (percentage of control), labetalol LG1; other: labetalol 50 μM; residual metabolism (percentage of control), labetalol LG1; residual metabolism (percentage of control), labetalol LG2; inhi

[5] = test system: T5, UGT enzymes of human liver microsomes; assay: Inhibition of estradiol (E2) glucuronidation in human liver microsomes; assay type: biochemical; conditions: liver 032101, E2 50 μM
T5 construct: residual metabolism (% of control), E2-17-β-D-glucuronide; other: liver 032101; residual metabolism (% of control), E2-17-β-D-glucuronide
From the text: (§1) Compounds were eluted using a binary solvent gradient system where solvent A was dilute phosphoric acid (pH 3) and solvent B was 80:20 acetonitrile-methanol. […] Detection was at 280 nm.

[6] = test system: T6, UGT enzymes of human liver microsomes; assay: as above; assay type: biochemical; conditions: liver 032101, E2 50 μM
T6 construct: residual metabolism (% of control), E2-3-β-D-glucuronide; other: liver 032101; residual metabolism (% of control), E2-3-β-D-glucuronide
From the text: as §1

[7] = test system: UGT enzymes of human liver microsomes; assay: as above; assay type: biochemical; conditions: E2 50 μM
From the text: as §1

[8] = test system: T7, UGT enzymes of human liver microsomes; assay: Inhibition of 2ME2 glucuronidation (MG1, MG2) in human liver microsomes; assay type: biochemical; conditions: liver 062101, 2ME2 50 μM
T7 construct: other: liver 062101
From the text: as §1

[9] = inhibitor 25 μM, raloxifene 50 μM, 250 μg/ml Supersomes, 1 mM UDPGA, 15 min
[10] = inhibitor 50 μM, raloxifene 50 μM, 250 μg/ml Supersomes, 1 mM UDPGA, 15 min
[11] = inhibitor column headed only "μM" (between 25 μM and 5 μM), raloxifene 50 μM, 250 μg/ml Supersomes, 1 mM UDPGA, 15 min

## CC/C(=C(/CC)c1ccc(O)cc1)c1ccc(O)cc1 [Diethylstilbestrol, reference compound]
[1]; Supersomes with recombinant human UGT1A1, pH 7.5, probe raloxifene 50 μM, formation of glucuronide G1
  activity at 15 min: 59%
[1]; Supersomes with recombinant human UGT1A1, pH 7.5, probe raloxifene 50 μM, formation of glucuronide G1, % of control metabolism, raloxifene G1, UGT1A1
  activity at 15 min, 10 µM: 59%
[1]; Supersomes with recombinant human UGT1A1, pH 7.5, probe raloxifene 50 μM, formation of glucuronide G1, % of control metabolism, raloxifene G1, UGT1A1, inhibitor 25 μM
  activity at 15 min, 25 µM: 26%
[1]; Supersomes with recombinant human UGT1A1, pH 7.5, probe raloxifene 50 μM, formation of glucuronide G1, % of control metabolism, raloxifene G1, UGT1A1, inhibitor 50 μM
  activity at 15 min, 50 µM: 12%
[1]; Supersomes with recombinant human UGT1A1, pH 7.5, probe raloxifene 50 μM, formation of glucuronide G1, Inhibition of raloxifene glucuronidation, G1, UGT1A1, G1, inhibitor 25 μM, raloxifene 50 μM, 250 μg/ml Supersomes, 1 mM UDPGA, 15 min
  activity at 15 min, 25 µM: 26%
[1]; Supersomes with recombinant human UGT1A1, pH 7.5, probe raloxifene 50 μM, formation of glucuronide G1, Inhibition of raloxifene glucuronidation, G1, UGT1A1, G1, inhibitor 50 μM, raloxifene 50 μM, 250 μg/ml Supersomes, 1 mM UDPGA, 15 min
  activity at 15 min, 50 µM: 12%
[1]; Supersomes with recombinant human UGT1A1, pH 7.5, probe raloxifene 50 μM, formation of glucuronide G2, % of control metabolism, raloxifene G2, UGT1A1
  activity at 15 min, 10 µM: 72%
[1]; Supersomes with recombinant human UGT1A1, pH 7.5, probe raloxifene 50 μM, formation of glucuronide G2, % of control metabolism, raloxifene G2, UGT1A1, inhibitor 25 μM
  activity at 15 min, 25 µM: 41%
[1]; Supersomes with recombinant human UGT1A1, pH 7.5, probe raloxifene 50 μM, formation of glucuronide G2, % of control metabolism, raloxifene G2, UGT1A1, inhibitor 50 μM
  activity at 15 min, 50 µM: 27%
[1]; recombinant UGT1A1 Supersomes, pH 7.5, probe raloxifene 50 μM (formation of glucuronide G2)
  activity at 15 min: 72%
[1]; recombinant UGT1A1 Supersomes, pH 7.5, probe raloxifene 50 μM (formation of glucuronide G2), Inhibition of raloxifene glucuronidation, G2, UGT1A1, G2, inhibitor 25 μM, raloxifene 50 μM, 250 μg/ml Supersomes, 1 mM UDPGA, 15 min
  activity at 15 min, 25 µM: 41%
[1]; recombinant UGT1A1 Supersomes, pH 7.5, probe raloxifene 50 μM (formation of glucuronide G2), Inhibition of raloxifene glucuronidation, G2, UGT1A1, G2, inhibitor 50 μM, raloxifene 50 μM, 250 μg/ml Supersomes, 1 mM UDPGA, 15 min
  activity at 15 min, 50 µM: 27%
[2]; human, Bacculosomes with recombinant human UGT1A10, pH 7.5, % of control metabolism, raloxifene glucuronide (one value printed, G1 or G2 not stated), UGT1A10, inhibitor 10 μM
  activity at 15 min, 10 µM: 70%
[2]; human, Bacculosomes with recombinant human UGT1A10, pH 7.5, % of control metabolism, raloxifene glucuronide (one value printed, G1 or G2 not stated), UGT1A10, inhibitor 25 μM
  activity at 15 min, 25 µM: 74%
[2]; human, formation of glucuronide G1, % of control metabolism, raloxifene G1, UGT1A10, inhibitor 50 μM
  activity at 15 min, 50 µM: 50%
[2]; human, formation of glucuronide G2, % of control metabolism, raloxifene G2, UGT1A10, inhibitor 50 μM
  activity at 15 min, 50 µM: 39%
[3]
  Vmax of 7-HFC glucuronidation (fit of the experiment with this inhibitor): 64 ± 4 nmol/min/mg
  Km: 87 ± 7 µM
[4]; inhibitor 50 μM
  residual metabolism (percentage of control), labetalol LG1: 23 (3) %
  residual metabolism (percentage of control), labetalol LG2: 29 (8) %
[4]; inhibitor 100 μM
  residual metabolism (percentage of control), labetalol LG1: 1 (3) % and 5 (3) %
  residual metabolism (percentage of control), labetalol LG2: 11 (1) % and 8 (1) %
[5]; inhibitor 100 μM
  residual metabolism (% of control), E2-17-β-D-glucuronide: 217 (5) %
[6]; inhibitor 100 μM
  residual metabolism (% of control), E2-3-β-D-glucuronide: 69 (1), %
[7]; liver 032101, inhibitor 1 μM
  residual metabolism (% of control), E2-3-β-D-glucuronide: 85 (1), %
  residual metabolism (% of control), E2-17-β-D-glucuronide: 361 (6) %
[7]; liver 032101, inhibitor 10 μM
  residual metabolism (% of control), E2-3-β-D-glucuronide: 57 (4), %
  residual metabolism (% of control), E2-17-β-D-glucuronide: 545 (32) %
[7]; liver 062101, inhibitor 1 μM
  residual metabolism (% of control), E2-3-β-D-glucuronide: 86 (3) %
  residual metabolism (% of control), E2-17-β-D-glucuronide: 254 (2) %
[7]; liver 062101, inhibitor 10 μM
  residual metabolism (% of control), E2-3-β-D-glucuronide: 71 (2) %
  residual metabolism (% of control), E2-17-β-D-glucuronide: 446 (7) %

## O=C(O[C@@H]1Cc2c(O)cc(O)cc2O[C@@H]1c1cc(O)c(O)c(O)c1)c1cc(O)c(O)c(O)c1 [Epigallocatechin gallate]
[8]; inhibitor 25 μM
  residual metabolism (% of control), 2ME2 MG1: 61 (1) %
  residual metabolism (% of control), 2ME2 MG2: 79 (0) %
[8]; inhibitor 50 μM
  residual metabolism (% of control), 2ME2 MG1: 48 (2) %
  residual metabolism (% of control), 2ME2 MG2: 71 (1) %
[8]; inhibitor 100 μM
  residual metabolism (% of control), 2ME2 MG1: 29 (1) %
  residual metabolism (% of control), 2ME2 MG2: 35 (1) %
[1]; [9]
  Inhibition of raloxifene glucuronidation, G1, UGT1A1: 44 (1)
  Inhibition of raloxifene glucuronidation, G2, UGT1A1: 45 (1)
[1]; [10]
  Inhibition of raloxifene glucuronidation, G1, UGT1A1: 21 (0)
  Inhibition of raloxifene glucuronidation, G2, UGT1A1: 25 (1)
[1]; [11]
  Inhibition of raloxifene glucuronidation, G1, UGT1A1: 70 (1)
  Inhibition of raloxifene glucuronidation, G2, UGT1A1: 74 (2)
[1]; inhibitor 25 μM
  % of control metabolism, raloxifene G1: 44 (1) %
  % of control metabolism, raloxifene G2: 45 (1) %
[1]; inhibitor 50 μM
  % of control metabolism, raloxifene G1: 21 (0) %
  % of control metabolism, raloxifene G2: 25 (1) %
[2]; UGT1A10, inhibitor 25 μM
  % of control metabolism, raloxifene G1: 68 (1) %
  % of control metabolism, raloxifene G2: 73 (1) %
[2]; UGT1A10, inhibitor 50 μM
  % of control metabolism, raloxifene G1: 37 (2) %
  % of control metabolism, raloxifene G2: 37 (1) %
[3]
  Vmax of 7-HFC glucuronidation (fit of the experiment with this inhibitor): 54 ± 3 nmol/min/mg
  Km: 75 ± 7 µM
[4]; inhibitor 100 μM
  residual metabolism (percentage of control), labetalol LG1: 55 (2) %
  residual metabolism (percentage of control), labetalol LG2: 52 (5) %
[5]; inhibitor 50 μM
  residual metabolism (% of control), E2-17-β-D-glucuronide: 82 (2) %
[6]; inhibitor 50 μM
  residual metabolism (% of control), E2-3-β-D-glucuronide: 46 (1) %
[7]; liver 062101, inhibitor 50 μM
  residual metabolism (% of control), E2-3-β-D-glucuronide: 45 (2) %
  residual metabolism (% of control), E2-17-β-D-glucuronide: 70 (1) %
